Experimental data reported in US20250345492A1, “AN ANTIBACTERIAL POLYPEPTIDE COMPOUND, A MEDICAL DEVICE, HYDROGEL AND USE THEREOF” (priority 2020, published 2025).
≈ marks a conversion by molar mass, not a printed value. Square brackets hold non-standard residues; d marks the D form. Peptide text beside a SMILES is read from it. Dap = NC[C@H](N)C(=O)O

Tests used:
[1] = tested on: Pseudomonas aeruginosa (ATCC 27853); details: standard strain
Source text: (§1) With respect to the determination of antibacterial activity and antifungal activity of the antibacterial polypeptide compounds, the bacterial strains employed included: E. coli (ATCC 25922), E. coli (ATCC 43837), Pseudomonas aeruginosa (ATCC 27853), Klebsiella pneumoniae (ATCC 700603), Cronobacter sakazakii (ATCC 29544), Staphylococcus aureus (ATCC 29213), Bacillus subtilis (ATCC 23857) and Staphylococcus epidermidis (ATCC 12228); and the fungal strains employed included Candida albicans (ATCC 14053), Candida glabrata (ATCC 2001), Candida parapsilosis (ATCC 22019), Candida tropicalis (ATCC 750) and Candida krusei (ATCC 6258), all of which were standard strains from American Type Culture Collection. In addition, drug-resistant strains S-1a, S-2a, S-3a, S-4a, E-1b, E-2b, E-3b, E-4b, E-5b, P-1c, P-2c, P-3c, P-4c, P-5c, and clinically isolated fungal strains Candida glabrata 2-1 and Candida albicans 14-1, 14-2 and 14-3 were employed, all which were clinically isolated.
(§2) Simply, a proper amount of the cryopreserved bacterium or fungus was added to fresh MH/SD medium, and cultured on a shaker overnight at 180 rpm at 37° C. The obtained cells were seeded again and cultured on a shaker for 4-5 hours to obtain cells in logarithmic phase. The resulting cells were added to a 96-well plate (1×10^5 CFU/ml, 100 μL/well), and then 100 μL of polypeptide with different concentrations (1-256 μM) twice the final concentrations was added to corresponding well according to the 2-fold serial dilution method. The fresh medium was used as a negative control, which was prepared in triplicate for each concentration. After dosing, the 96-well plate was placed in an incubator at constant 37° C. and humidity for 12 hours to observe the results. According to naked eye observations, the concentration of the compound in the first transparent well following the turbid wells was recorded as the MIC of the compound, namely, the MIC value of the compound to the bacterium or fungus.

[2] = tested on: C. krusei ATCC6258; details: ATCC6258
Source text: as §1, §2

[3] = tested on: Bacillus subtilis (ATCC 23857); details: ATCC 23857
Source text: as §1, §2

[4] = tested on: C. tropicalis ATCC750; details: ATCC750
Source text: as §1, §2

[5] = tested on: Staphylococcus epidermidis (ATCC 12228); details: ATCC 12228
Source text: as §1, §2

[6] = tested on: C. parapsilosis ATCC2001; details: ATCC2001
Source text: as §1, §2

[7] = tested on: E. coli (ATCC 25922); details: ATCC 25922
Source text: as §1, §2

[8] = tested on: Cronobacter sakazakii (ATCC 29544); details: ATCC 29544
Source text: as §1, §2

[9] = tested on: C. glabrata ATCC22019; details: ATCC22019
Source text: as §1, §2

[10] = tested on: Staphylococcus aureus (ATCC 29213); details: ATCC 29213
Source text: as §1, §2

[11] = tested on: C. albicans ATCC14053; details: ATCC14053
Source text: as §1, §2

Compound	MIC P. aerugmosa ATCC27853 [1]	MIC C. krusei ATCC6258 [2]	MIC B. subtilis ATCC23857 [3]	MIC C. tropicalis ATCC750 [4]	MIC S. epidermidis ATCC12228 [5]	MIC C. parapsilosis ATCC2001 [6]	MIC C. coli ATCC25922 [7]	MIC C. sakazakii ATCC29544 [8]	MIC C. glabrata ATCC22019 [9]	MIC S. aureus ATCC29213 [10]	MIC C. albicans ATCC14053 [11]
H-PFRLSLRL-NH2 [Compound 6]	32 µM	32 µM	16 µM	16 µM	16 µM	16 µM	8 µM	16 µM	8 µM	64 µM	32 µM
H-PFRLRLHL-NH2 [Compound 5]	32 µM	64 µM	16 µM	32 µM	32 µM	16 µM	16 µM	32 µM	16 µM	128 µM	16 µM
CC(C)C[C@H](NC(=O)[C@H](CN)NC(=O)[C@H](CC(C)C)NC(=O)[C@H](CN)NC(=O)[C@H](CC(C)C)NC(=O)[C@H](CN)NC(=O)[C@H](Cc1c[nH]c2ccccc12)NC(=O)[C@@H]1CCCN1)C(N)=O [Compound 11, Pro-Trp-Dap-Leu-Dap-Leu-Dap-Leu-NH2] (H-PW[Dap]L[Dap]L[Dap]L-NH2)	64 µM (≈ 57.5 µg/mL)	32 µM (≈ 28.7 µg/mL)	16 µM (≈ 14.4 µg/mL)	16 µM (≈ 14.4 µg/mL)	16 µM (≈ 14.4 µg/mL)	16 µM (≈ 14.4 µg/mL)	16 µM (≈ 14.4 µg/mL)	16 µM (≈ 14.4 µg/mL)	16 µM (≈ 14.4 µg/mL)	32 µM (≈ 28.7 µg/mL)	64 µM (≈ 57.5 µg/mL)
H-PWRLSLHL-NH2 [Compound 12]	32 µM	32 µM	16 µM	16 µM	8 µM	16 µM	16 µM	16 µM	16 µM	32 µM	32 µM
H-PWRLSLRL-NH2 [Compound 14]	8 µM	32 µM	8 µM	8 µM	16 µM	8 µM	8 µM	8 µM	8 µM	32 µM	8 µM
CC(C)C[C@H](NC(=O)[C@H](CCN)NC(=O)[C@H](CC(C)C)NC(=O)[C@H](CO)NC(=O)[C@H](CC(C)C)NC(=O)[C@H](CCN)NC(=O)[C@H](Cc1c[nH]c2ccccc12)NC(=O)[C@@H]1CCCN1)C(N)=O [Compound 10, Pro-Trp-Dab-Leu-Ser-Leu-Dab-Leu-NH2] (HELM PEPTIDE1{P.W.[Dab].L.S.L.[Dab].L.[am]}$$$$V2.0)	32 µM (≈ 29.7 µg/mL)	32 µM (≈ 29.7 µg/mL)	16 µM (≈ 14.8 µg/mL)	8 µM (≈ 7.42 µg/mL)	16 µM (≈ 14.8 µg/mL)	16 µM (≈ 14.8 µg/mL)	16 µM (≈ 14.8 µg/mL)	8 µM (≈ 7.42 µg/mL)	16 µM (≈ 14.8 µg/mL)	32 µM (≈ 29.7 µg/mL)	32 µM (≈ 29.7 µg/mL)
CC(C)C[C@H](NC(=O)[C@H](CCCCN)NC(=O)[C@H](CC(C)C)NC(=O)[C@H](CCCCN)NC(=O)[C@H](CC(C)C)NC(=O)[C@H](CCN)NC(=O)[C@H](Cc1ccccc1)NC(=O)[C@@H]1CCCN1)C(N)=O [Compound 3, Pro-Phe-Dab-Leu-Lys-Leu-Lys-Leu-NH2] (HELM PEPTIDE1{P.F.[Dab].L.K.L.K.L.[am]}$$$$V2.0)	32 µM (≈ 30.6 µg/mL)	64 µM (≈ 61.3 µg/mL)	16 µM (≈ 15.3 µg/mL)	32 µM (≈ 30.6 µg/mL)	16 µM (≈ 15.3 µg/mL)	16 µM (≈ 15.3 µg/mL)	32 µM (≈ 30.6 µg/mL)	32 µM (≈ 30.6 µg/mL)	32 µM (≈ 30.6 µg/mL)	128 µM (≈ 123 µg/mL)	32 µM (≈ 30.6 µg/mL)
H-PFRLRLRL-NH2 [Compound 7]	8 µM	32 µM	8 µM	32 µM	16 µM	8 µM	8 µM	32 µM	8 µM	64 µM	8 µM
H-PFRLSLHL-NH2 [Compound 4]	32 µM	32 µM	16 µM	32 µM	32 µM	16 µM	32 µM	32 µM	32 µM	128 µM	32 µM
H-PFKLKLHL-NH2 [Compound 1]	32 µM	64 µM	32 µM	32 µM	32 µM	32 µM	32 µM	32 µM	32 µM	128 µM	32 µM
